The text below walks through data of PubChem BioAssay (NCI).

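Five compound concentrations were applied to cells in 96-well plates for 48 hours; endpoints were derived by simple linear interpolation of the resulting dose-response curve. The concentration for full growth arrest is given as TGI.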 A value given as a limit tells only on which side of the number the result lay.

Test systems include A549 NSCLC; DU-145 prostate; HCT-116 colon; HCT-15 colon; HT29 colon; KM12 colon; M14 melanoma; NCI-H522 lung; OVCAR-4 ovarian; OVCAR-8 ovarian; PC-3 prostate; RPMI-8226 leukemia; RXF 393 renal; SF-295 CNS; SK-MEL-5 melanoma; SN12C renal; SNB-75 CNS; SW-620 colon; T-47D breast.
Common to all, as to test: NCI tumour cell line growth inhibition, 48 h

As for `CO[C@@H]1C[C@H]2[C@@H]3CC[C@H]([C@H](C)COC(C)=O)[C@@]3(C)CC[C@@H]2[C@@]2(C)CC[C@H]3C[C@]312`, the TGI in the assay on A549 NSCLC, with DU-145 prostate, in the assay with HCT-116 colon, with HCT-15 colon, in the assay with HT29 colon and with KM12 colon was more than 100 µM throughout. In addition, the TGI with M14 melanoma, in the assay with NCI-H522 lung, in the assay with OVCAR-4 ovarian, with OVCAR-8 ovarian, with PC-3 prostate and in the assay on RPMI-8226 leukemia was more than 100 µM in each case. Also, the TGI in the assay on RXF 393 renal, with SF-295 CNS, in the assay with SK-MEL-5 melanoma, with SN12C renal, in the assay on SNB-75 CNS and with SW-620 colon was more than 100 µM throughout. Moreover, the TGI with T-47D breast was more than 100 µM.

On to `CCOC(=O)c1c(N2CCOCC2)ncn(-c2cccc(Cl)c2)c1=O`, for which the TGI in the assay with A549 NSCLC, in the assay with DU-145 prostate, in the assay with HCT-116 colon, in the assay with HCT-15 colon, in the assay on HT29 colon and with KM12 colon was more than 100 µM in each case. The TGI with M14 melanoma, in the assay on NCI-H522 lung, in the assay with OVCAR-4 ovarian, with OVCAR-8 ovarian, with PC-3 prostate and in the assay on RPMI-8226 leukemia was more than 100 µM in each case. The TGI in the assay with RXF 393 renal, with SF-295 CNS, with SN12C renal, in the assay on SNB-75 CNS, in the assay on SW-620 colon and in the assay on T-47D breast was more than 100 µM in each case.

Take `COc1ccc(C[C@@H](C(=O)O[C@H](C)[C@H](NC(=O)[C@@H](CC(C)C)N(C)C(=O)C2CCCN2C(=O)[C@H](C)O)C(=O)N2CCCCNC(=O)[C@@H](C)C(=O)[C@H](C(C)C)OC(=O)C[C@H](O)[C@H]2CC(C)C)N(C)C(C)=O)cc1` (some centres not stated): the TGI is more than 50 µM with A549 NSCLC; more than 50 µM in the assay on DU-145 prostate; more than 50 µM in the assay on HCT-116 colon; more than 50 µM in the assay on HCT-15 colon; 25.4 µM with HT29 colon; 31.6 µM in the assay with KM12 colon. The TGI was more than 50 µM in the assay on M14 melanoma; more than 50 µM with NCI-H522 lung; more than 50 µM in the assay with OVCAR-4 ovarian; more than 50 µM in the assay on OVCAR-8 ovarian; more than 50 µM in the assay on PC-3 prostate; 26.8 µM in the assay with RPMI-8226 leukemia. Moreover, the TGI in the assay with RXF 393 renal is 20.6 µM; with SF-295 CNS it was more than 50 µM; in the assay with SK-MEL-5 melanoma it was 34.1 µM; with SN12C renal, more than 50 µM; in the assay on SNB-75 CNS it was more than 50 µM; in the assay with SW-620 colon, 28.4 µM. In the assay with T-47D breast, this compound had a TGI of more than 50 µM.

Consider `CSC1(C(=O)O)C2CCC3C2CCC31` (configuration not stated), for which the TGI in the assay with A549 NSCLC, in the assay on DU-145 prostate, with HCT-116 colon, in the assay with HCT-15 colon, in the assay on HT29 colon and in the assay with KM12 colon was more than 100 µM throughout. In addition, the TGI with M14 melanoma, with NCI-H522 lung, with OVCAR-4 ovarian, in the assay on OVCAR-8 ovarian, with PC-3 prostate and in the assay on RPMI-8226 leukemia was more than 100 µM throughout. The TGI in the assay with RXF 393 renal, in the assay with SF-295 CNS, with SK-MEL-5 melanoma, in the assay with SN12C renal, in the assay with SNB-75 CNS and with SW-620 colon was more than 100 µM throughout. Further, in the assay on T-47D breast, the TGI was more than 100 µM.

On to `COc1ccc2c(C)cc(N/N=C/c3ccc(C)s3)nc2c1`, for which the TGI with A549 NSCLC is 39.7 µM; in the assay with DU-145 prostate it was 23.9 µM; in the assay with HCT-116 colon, more than 46.4 µM; in the assay with HCT-15 colon, 41.3 µM; in the assay with HT29 colon, 16.7 µM; in the assay with KM12 colon, more than 57 µM. The TGI with M14 melanoma was 23.2 µM; in the assay with NCI-H522 lung it was more than 100 µM; with OVCAR-4 ovarian, more than 63.9 µM; in the assay with OVCAR-8 ovarian, 51.5 µM; in the assay with PC-3 prostate it was 37.1 µM; in the assay with RPMI-8226 leukemia, more than 35.7 µM. Moreover, the TGI was 33.8 µM in the assay on RXF 393 renal; 26.8 µM with SF-295 CNS; 16 µM with SK-MEL-5 melanoma; 37.3 µM in the assay on SN12C renal; more than 83.9 µM in the assay on SNB-75 CNS; more than 48.4 µM in the assay with SW-620 colon. This compound displayed a TGI in the assay with T-47D breast of 26 µM.

As for `CCOC(=O)CC(=O)Nc1cccc2sc3ncccc3c(=O)c12`, the TGI in the assay on A549 NSCLC, with DU-145 prostate, in the assay with HCT-116 colon, with HCT-15 colon, with HT29 colon and in the assay on KM12 colon was more than 100 µM in each case. In addition, the TGI in the assay on M14 melanoma, in the assay on NCI-H522 lung, in the assay on OVCAR-4 ovarian, with OVCAR-8 ovarian, in the assay on PC-3 prostate and in the assay with RPMI-8226 leukemia was more than 100 µM in each case. Besides, the TGI in the assay with RXF 393 renal is 35.8 µM; with SF-295 CNS, more than 100 µM; in the assay on SK-MEL-5 melanoma, 40.5 µM; in the assay on SN12C renal, more than 100 µM; with SNB-75 CNS it was more than 100 µM; in the assay with SW-620 colon, more than 100 µM. Moreover, the TGI with T-47D breast is more than 100 µM.

As to `C1=Nc2ccc(cc2)-c2ccc(cc2)N=Cc2ccc(cc2)OCc2cccc(n2)COc2ccc1cc2`, the TGI in the assay with A549 NSCLC, with DU-145 prostate, in the assay on HCT-116 colon, in the assay on HCT-15 colon, in the assay on HT29 colon and in the assay on KM12 colon was more than 100 µM each time. Besides, the TGI in the assay on M14 melanoma, with NCI-H522 lung, in the assay with OVCAR-4 ovarian, in the assay with OVCAR-8 ovarian, with PC-3 prostate and in the assay with RPMI-8226 leukemia was more than 100 µM each time. The TGI in the assay with RXF 393 renal, with SF-295 CNS, in the assay with SK-MEL-5 melanoma, with SN12C renal, in the assay on SNB-75 CNS and in the assay on SW-620 colon was more than 100 µM each time. This compound displayed a TGI with T-47D breast of more than 100 µM.
